# Test results taken from ChEMBL document CHEMBL3132833, “3,4,2-Trimethoxy-trans-stilbene a potent CYP1B1 inhibitor” (Medchemcomm, 2014).
# Tests used:
# Cytochrome P450 1B1 = molecular target: T1, Cytochrome P450 1B1 (Homo sapiens, UniProt Q16678); experiment: Inhibition of human recombinant CYP1B1 after 15 mins by 7-ethoxyresorufin-O-deethylation-based spectrofluorimetry
# T1 sequence (Q16678 whole entry): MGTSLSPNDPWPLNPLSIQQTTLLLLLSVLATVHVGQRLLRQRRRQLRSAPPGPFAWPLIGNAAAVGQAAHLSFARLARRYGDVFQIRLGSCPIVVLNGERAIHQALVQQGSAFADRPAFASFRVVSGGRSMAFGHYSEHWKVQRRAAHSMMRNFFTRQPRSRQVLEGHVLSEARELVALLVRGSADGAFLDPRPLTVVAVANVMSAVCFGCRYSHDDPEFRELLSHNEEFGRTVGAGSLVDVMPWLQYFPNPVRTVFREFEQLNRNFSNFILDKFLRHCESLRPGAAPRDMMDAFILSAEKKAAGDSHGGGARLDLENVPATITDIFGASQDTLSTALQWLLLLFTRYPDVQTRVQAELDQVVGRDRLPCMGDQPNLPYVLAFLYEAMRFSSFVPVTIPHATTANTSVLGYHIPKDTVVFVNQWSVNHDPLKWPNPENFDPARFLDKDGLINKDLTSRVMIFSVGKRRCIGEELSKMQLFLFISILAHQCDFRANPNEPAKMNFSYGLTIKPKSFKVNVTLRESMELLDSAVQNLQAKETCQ
# Homo sapiens [1] = organism: Homo sapiens; experiment: Selectivity ratio of IC50 for human recombinant CYP1A1 to IC50 for human recombinant CYP1B1
# Homo sapiens [2] = organism: Homo sapiens; experiment: Selectivity ratio of IC50 for human recombinant CYP1A2 to IC50 for human recombinant CYP1B1
# Cytochrome P450 1A1 = molecular target: T2, Cytochrome P450 1A1 (Homo sapiens, UniProt P04798); experiment: Inhibition of human recombinant CYP1A1 after 15 mins by 7-ethoxyresorufin-O-deethylation-based spectrofluorimetry
# T2 sequence (P04798 whole entry): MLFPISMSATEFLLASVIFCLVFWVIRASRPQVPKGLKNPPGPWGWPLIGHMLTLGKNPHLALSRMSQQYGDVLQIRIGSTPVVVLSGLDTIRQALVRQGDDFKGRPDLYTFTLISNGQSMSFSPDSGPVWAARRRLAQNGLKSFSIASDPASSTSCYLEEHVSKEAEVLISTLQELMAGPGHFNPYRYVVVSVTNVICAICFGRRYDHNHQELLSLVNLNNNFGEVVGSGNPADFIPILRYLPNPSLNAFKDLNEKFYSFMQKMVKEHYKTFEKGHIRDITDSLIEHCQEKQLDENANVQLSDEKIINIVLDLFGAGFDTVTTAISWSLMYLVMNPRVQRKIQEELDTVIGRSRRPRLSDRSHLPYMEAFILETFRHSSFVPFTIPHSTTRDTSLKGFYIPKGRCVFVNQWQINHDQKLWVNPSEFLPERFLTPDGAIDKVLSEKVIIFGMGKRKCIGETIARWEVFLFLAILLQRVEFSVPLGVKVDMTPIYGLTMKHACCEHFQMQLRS
# Cytochrome P450 1A2 = molecular target: T3, Cytochrome P450 1A2 (Homo sapiens, UniProt P05177); experiment: Inhibition of human recombinant CYP1A2 after 15 mins by 7-ethoxyresorufin-O-deethylation-based spectrofluorimetry
# T3 sequence (P05177 whole entry): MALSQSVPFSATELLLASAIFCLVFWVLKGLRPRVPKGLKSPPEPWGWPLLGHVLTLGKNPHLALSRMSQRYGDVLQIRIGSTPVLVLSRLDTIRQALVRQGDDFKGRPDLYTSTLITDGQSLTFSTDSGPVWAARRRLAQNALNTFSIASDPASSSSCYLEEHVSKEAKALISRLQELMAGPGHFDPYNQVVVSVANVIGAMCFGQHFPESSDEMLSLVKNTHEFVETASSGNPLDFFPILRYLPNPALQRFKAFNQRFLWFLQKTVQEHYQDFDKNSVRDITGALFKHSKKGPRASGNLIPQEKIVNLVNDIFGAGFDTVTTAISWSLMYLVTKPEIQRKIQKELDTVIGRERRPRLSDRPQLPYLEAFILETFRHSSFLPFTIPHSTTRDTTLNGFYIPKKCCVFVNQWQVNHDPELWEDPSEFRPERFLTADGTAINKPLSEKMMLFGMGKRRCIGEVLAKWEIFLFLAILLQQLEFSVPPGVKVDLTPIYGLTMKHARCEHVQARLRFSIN
# Col2 = experiment: Cytotoxicity against human Col2 cells; assay type: functional, cell-based
SMILES,IC50 (Cytochrome P450 1B1),Ratio IC50 (Homo sapiens [1]),Ratio IC50 (Homo sapiens [2]),IC50 (Cytochrome P450 1A1),IC50 (Cytochrome P450 1A2),IC50 (Col2)
COc1cc(O)cc(/C=C/c2ccc(O)cc2)c1,2100 nM,–,–,–,–,–
COc1ccc(/C=C/c2c(OC)cccc2OC)cc1OC,310 nM,0.74,7.5,230 nM,2310 nM,–
COc1ccc(/C=C/c2cccc(OC)c2OC)cc1OC,370 nM,1.2,43.3,450 nM,16000 nM,–
COc1cc(OC)c(/C=C/c2ccc(OC)c(OC)c2)c(OC)c1,300 nM,0.9,> 333,270 nM,> 100000 nM,–
COc1ccc(OC)c(/C=C/c2ccc(OC)c(OC)c2)c1,620 nM,0.8,> 160,500 nM,> 100000 nM,–
COc1cc(/C=C/c2ccc(O)cc2)cc(OC)c1 [PTEROSTILBENE],1400 nM,–,–,–,–,–
COc1cc(OC)c(OC)cc1/C=C/c1ccc(OC)c(OC)c1,4440 nM,0.4,> 22.5,1780 nM,> 100000 nM,–
COc1ccc(/C=C/c2ccc(OC)c(OC)c2OC)cc1OC,4170 nM,1.2,> 24,5180 nM,> 100000 nM,–
COc1ccc(/C=C/c2ccc(OC)c(OC)c2)c(OC)c1,210 nM,2.4,> 480,510 nM,> 100000 nM,–
COc1cc(/C=C/c2ccc(OC)cc2OC)cc(OC)c1,–,–,–,–,–,0.8 µg/mL
COc1ccc(/C=C/c2ccccc2)cc1OC,300 nM,1.5,20.1,440 nM,6040 nM,–
COc1ccc(/C=C/c2cc(O)cc(O)c2)cc1 [RESVERATROL 4'-METHYL ETHER],800 nM,–,–,–,–,–
COc1ccccc1/C=C/c1ccc(OC)c(OC)c1,4 nM,90,830,360 nM,3320 nM,–
